Measurements published in patent US20260317344A1, “EGFR INHIBITORS FOR TREATING DISEASE” (BLOSSOMHILL THERAPEUTICS, INC., priority 2023, published 2026).

Columns and labels:
EGFR (L858R/T790M/C797S) = EGFR (L858R/T790M/C797S) (Homo sapiens, UniProt P00533, C797S/L858R/T790M); test: HotSpot radiometric kinase assay, inhibition of EGFR L858R/T790M/C797S mutant; type: biochemical; details: 33P ATP, room temperature, 120 m
In short: (§1)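 Kinase/substrate pairs in 20 mM HEPES pH 7.5, 10 mM MgCl2, 1 mM EGTA, 0.02% Brij35, 0.02 mg/ml BSA, 0.1 mM Na3VO4, 2 mM DTT, 1% DMSO, preincubated ~20 min with compound. Reaction started with ATP/33P-ATP ([…]), run 120 min at room temperature; phosphorylation read by P81 filter binding, IC50 from curve fits.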

[1] = molecular target: T1, pEGFR, A431 cells (wildtype EGFR) (Homo sapiens, UniProt P00533); test: Cellular EGFR phosphorylation assay (LANCE Ultra TR-FRET) in A431 cells; type: cell-based; details: 4 hours at 37° C., 40 ng/mL EGF for the final 10 minutes, read-out: A431 pEGFR IC50
T1 construct: pEGFR (Tyr1068) TR-FRET
In short: (§2)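 pEGFR Tyr1068 TR-FRET readout, lysates after 4 h compound exposure (37 °C, 5% CO2); 9-dose 3-fold series. A431 only: EGF 40 ng/mL for last 10 min. IC50 from curve fit.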

EGFR (D746-750/C797S) = EGFR (D746-750/C797S) (Homo sapiens, UniProt P00533, C797S/DEL746-750); test: HotSpot radiometric kinase assay, inhibition of EGFR 746-750/C797S mutant; type: biochemical; details: 33P ATP, room temperature, 120 m
In short: as §1

[2] = molecular target: T2, pEGFR, PC-9 cells (d746-750 EGFR) (Homo sapiens, UniProt P00533, DEL746-750); test: Cellular EGFR phosphorylation assay (LANCE Ultra TR-FRET) in PC-9 cells; type: cell-based; details: 4 hours at 37° C., read-out: PC-9 pEGFR IC50
T2 construct: pEGFR (Tyr1068) TR-FRET
In short: as §2

EGFR (L858R) = EGFR (L858R) (Homo sapiens, UniProt P00533, L858R); test: HotSpot radiometric kinase assay, inhibition of EGFR L858R mutant; type: biochemical; details: 33P ATP, room temperature, 120 m
Experimental: (§3) Biochemical Assays for inhibition of wild-type and mutant EGFRs
(§4) Briefly, specific kinase/substrate pairs along with required cofactors were prepared in reaction buffer; 20 mM HEPES pH 7.5, 10 mM […], 1 mM EGTA, 0.02% Brij35, 0.02 mg/ml BSA, 0.1 mM Na3VO4, 2 mM DTT, 1% DMSO. Compounds were delivered into the reaction, followed ~20 minutes later by addition of a mixture of ATP (Sigma, St. Louis MO) and ^33P ATP (Perkin Elmer, Waltham MA) to a final concentration of […]. Reactions were carried out at room temperature for 120 m, followed by spotting of the reactions onto P81 ion exchange filter paper (Whatman Inc., Piscataway, NJ). Unbound phosphate was removed by extensive washing of filters in 0.75% phosphoric acid. […] IC50 values and curve fits were obtained using Prism (GraphPad Software).

[3] = molecular target: T3, pEGFR, NCI-H1975 cells (L858R/T790M EGFR) (Homo sapiens, UniProt P00533, L858R/T790M); test: Cellular EGFR phosphorylation assay (LANCE Ultra TR-FRET) in NCI-H1975 cells; type: cell-based; details: 4 hours at 37° C., read-out: H1975 pEGFR IC50
T3 construct: pEGFR (Tyr1068) TR-FRET
In short: as §2

NCI-H1975 cells = test: 5-Day CellTiter Glo (CTG) cell proliferation assay, NCI-H1975; type: cell-based; details: Homo sapiens; NCI-H1975 cells (L858R/T790M EGFR), 5-day CTG proliferation, 120 hours; read-out: H1975 IC50
In short: (§5)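 Luminescent ATP signal (CellTiter-Glo 2.0) after 120 hours of compound exposure gave IC50 values. PC-9 and HCC827 harbour EGFR d746-750; NCI-H1975 harbours L858R/T790M.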

EGFR (D746-750) = EGFR (D746-750) (Homo sapiens, UniProt P00533, DEL746-750); test: HotSpot radiometric kinase assay, inhibition of EGFR 746-750 mutant; type: biochemical; details: 33P ATP, room temperature, 120 m
In short: as §1

[4] = tested on: BaF3 cells with engineered EGFR L858R/T790M/C797S; test: 3-Day CellTiter Glo (CTG) cell proliferation assay, BaF3 EGFR L858R/T790M/C797S; type: cell-based; details: Mus musculus, 3-day CTG proliferation, 72 hours
In short: (§6)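 Luminescent ATP read-out (CellTiter-Glo 2.0) after 72 h compound exposure gives IC50 values. BaF3 transgenic cells, one thousand per well, received a nine-dose series and were kept at 37 °C under 5% CO2.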

HCC827 cells = test: 5-Day CellTiter Glo (CTG) cell proliferation assay, HCC827; type: cell-based; details: Homo sapiens; HCC827 cells (d746-750 EGFR), 5-day CTG proliferation, 120 hours; read-out: HCC827 IC50
In short: as §5

EGFR (D770_N771insNPG) = EGFR (D770_N771insNPG) (Homo sapiens, UniProt P00533, INS770NPG); test: HotSpot radiometric kinase assay, inhibition of EGFR (D770_N771insNPG) mutant; type: biochemical; details: 33P ATP, room temperature, 120 m
In short: as §1

EGFR WT = EGFR WT (Homo sapiens, UniProt P00533); test: HotSpot radiometric kinase assay, inhibition of EGFR WT; type: biochemical; details: 33P ATP, room temperature, 120 m
Experimental: as §3, §4

[5] = tested on: BaF3 cells with engineered EGFR L858R/C797S; test: 3-Day CellTiter Glo (CTG) cell proliferation assay, BaF3 EGFR L858R/C797S; type: cell-based; details: Mus musculus, 3-day CTG proliferation, 72 hours
In short: as §6

PC-9 cells = test: 5-Day CellTiter Glo (CTG) cell proliferation assay, PC-9; type: cell-based; details: Homo sapiens; PC-9 cells (d746-750 EGFR), 5-day CTG proliferation, 120 hours; read-out: PC-9 IC50
In short: as §5

EGFR (L858R/T790M) = EGFR (L858R/T790M) (Homo sapiens, UniProt P00533, L858R/T790M); test: HotSpot radiometric kinase assay, inhibition of EGFR L858R/T790M mutant; type: biochemical; details: 33P ATP, room temperature, 120 m
Experimental: as §3, §4

[6] = tested on: BaF3 cells with engineered EGFR d746-750/T790M; test: 3-Day CellTiter Glo (CTG) cell proliferation assay, BaF3 EGFR d746-750/T790M; type: cell-based; details: Mus musculus; BaF3 EGFR d746-750/T790M cells, 3-day CTG proliferation, 72 hours
In short: as §6

EGFR (D746-750), sequence (P00533 with tags, fused parts or gaps DEL746-750): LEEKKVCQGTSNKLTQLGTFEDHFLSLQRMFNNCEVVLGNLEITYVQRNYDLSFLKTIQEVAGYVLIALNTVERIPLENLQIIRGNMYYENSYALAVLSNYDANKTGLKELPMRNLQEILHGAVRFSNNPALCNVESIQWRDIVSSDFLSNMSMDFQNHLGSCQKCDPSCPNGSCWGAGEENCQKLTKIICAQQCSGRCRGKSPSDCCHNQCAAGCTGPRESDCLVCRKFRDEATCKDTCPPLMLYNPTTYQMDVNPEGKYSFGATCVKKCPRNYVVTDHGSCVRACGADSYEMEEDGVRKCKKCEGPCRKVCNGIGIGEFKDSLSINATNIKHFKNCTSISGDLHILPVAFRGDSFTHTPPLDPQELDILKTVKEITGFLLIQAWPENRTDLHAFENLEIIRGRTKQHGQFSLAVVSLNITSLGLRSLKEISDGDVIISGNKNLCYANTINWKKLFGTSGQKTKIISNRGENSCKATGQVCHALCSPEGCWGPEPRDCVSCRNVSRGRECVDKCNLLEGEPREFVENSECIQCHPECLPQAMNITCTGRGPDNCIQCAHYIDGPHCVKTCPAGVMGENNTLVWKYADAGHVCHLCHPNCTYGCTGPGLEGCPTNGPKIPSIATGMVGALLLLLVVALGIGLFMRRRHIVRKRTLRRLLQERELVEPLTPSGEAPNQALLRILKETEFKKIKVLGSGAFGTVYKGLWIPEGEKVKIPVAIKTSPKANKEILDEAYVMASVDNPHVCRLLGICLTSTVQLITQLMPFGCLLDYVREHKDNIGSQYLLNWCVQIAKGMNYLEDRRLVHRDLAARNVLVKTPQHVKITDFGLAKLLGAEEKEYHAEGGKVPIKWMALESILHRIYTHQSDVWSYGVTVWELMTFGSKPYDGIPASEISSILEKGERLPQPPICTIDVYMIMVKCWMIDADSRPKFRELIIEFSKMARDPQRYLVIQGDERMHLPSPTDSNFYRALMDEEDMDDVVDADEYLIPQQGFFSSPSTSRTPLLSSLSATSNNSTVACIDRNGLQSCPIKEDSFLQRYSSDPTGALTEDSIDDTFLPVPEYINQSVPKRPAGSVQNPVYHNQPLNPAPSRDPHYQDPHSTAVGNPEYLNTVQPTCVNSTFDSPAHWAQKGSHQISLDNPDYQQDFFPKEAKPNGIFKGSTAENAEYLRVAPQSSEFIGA
T2 sequence (P00533 with tags, fused parts or gaps DEL746-750): as above
EGFR WT, sequence (P00533 25-1210): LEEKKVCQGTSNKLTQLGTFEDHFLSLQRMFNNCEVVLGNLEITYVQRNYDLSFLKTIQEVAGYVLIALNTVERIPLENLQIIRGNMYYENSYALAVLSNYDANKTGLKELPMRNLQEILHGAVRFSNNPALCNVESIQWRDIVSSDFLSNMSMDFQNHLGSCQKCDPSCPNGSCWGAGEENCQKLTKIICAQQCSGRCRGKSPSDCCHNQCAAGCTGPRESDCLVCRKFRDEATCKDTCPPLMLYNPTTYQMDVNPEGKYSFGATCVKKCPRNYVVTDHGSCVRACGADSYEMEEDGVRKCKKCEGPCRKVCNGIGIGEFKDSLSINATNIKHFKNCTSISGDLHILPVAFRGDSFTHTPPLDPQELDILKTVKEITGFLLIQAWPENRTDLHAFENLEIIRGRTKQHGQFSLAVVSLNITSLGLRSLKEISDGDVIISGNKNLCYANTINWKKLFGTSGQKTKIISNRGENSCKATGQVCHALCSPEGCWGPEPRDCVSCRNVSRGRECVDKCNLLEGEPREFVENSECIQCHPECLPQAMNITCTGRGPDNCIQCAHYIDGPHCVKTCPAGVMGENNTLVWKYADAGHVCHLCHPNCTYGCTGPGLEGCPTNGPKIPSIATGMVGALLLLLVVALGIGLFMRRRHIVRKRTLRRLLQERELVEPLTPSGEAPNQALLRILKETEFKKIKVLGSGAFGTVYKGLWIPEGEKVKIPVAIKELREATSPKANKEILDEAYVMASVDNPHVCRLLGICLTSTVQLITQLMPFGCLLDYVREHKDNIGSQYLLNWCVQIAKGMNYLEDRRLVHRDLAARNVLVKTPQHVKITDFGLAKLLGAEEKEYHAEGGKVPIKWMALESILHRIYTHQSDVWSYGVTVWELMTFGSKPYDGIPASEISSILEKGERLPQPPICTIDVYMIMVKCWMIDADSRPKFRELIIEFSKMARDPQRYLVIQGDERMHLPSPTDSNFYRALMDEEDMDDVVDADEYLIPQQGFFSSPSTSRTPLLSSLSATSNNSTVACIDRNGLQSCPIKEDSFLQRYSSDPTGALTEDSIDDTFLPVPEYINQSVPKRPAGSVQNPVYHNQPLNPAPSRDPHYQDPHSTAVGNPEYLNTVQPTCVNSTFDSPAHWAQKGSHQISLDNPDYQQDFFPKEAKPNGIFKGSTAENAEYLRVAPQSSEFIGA
T1 sequence (P00533 25-1210): as above

Row | SMILES | IC50 (EGFR (L858R/T790M/C797S)) [nM] | IC50 [1] [nM] | IC50 (EGFR (D746-750/C797S)) [nM] | IC50 [2] [nM] | IC50 (EGFR (L858R)) [nM] | IC50 [3] [nM] | IC50 (NCI-H1975 cells) [nM] | IC50 (EGFR (D746-750)) [nM] | IC50 [4] [nM] | IC50 (HCC827 cells) [nM] | IC50 (EGFR (D770_N771insNPG)) [nM] | IC50 (EGFR WT) [nM] | IC50 [5] [nM] | IC50 (PC-9 cells) [nM] | IC50 (EGFR (L858R/T790M)) [nM] | IC50 [6] [nM]
1 | Cc1nn(CCO)c2c1/C=C/c1n[nH]c3cnc(cc13)-c1c(C)nn(C)c1O[C@H](C)CN(C(C)C)C2 [Ex. 20, 2-[(10R,17E)-6,8,10,16-tetramethyl-12-(propan-2-yl)-2,8,10,11,12,13-hexahydro-14H-5,3-(azenometheno)tripyrazolo[3,4-f:3′,4′-j:4″,3″-n][1,4]oxazacyclopentadecin-14-yl]ethan-1-ol] | 2.57 | 61 | 0.98 | 11.8 | 0.55 | 8.57 | 96 | 0.27 | 5.29 | 2.89 | 1.48 | 0.71 | 3.05 | 25.2 | 0.81 | 
2 | Cc1nn(CCO)c2c1/C=C/c1n[nH]c3cnc(cc13)-c1c(C)nn(C)c1O[C@@H](C)CN(C(C)C)C2 [Ex. 21, 2-[(10S,17E)-6,8,10,16-tetramethyl-12-(propan-2-yl)-2,8,10,11,12,13-hexahydro-14H-5,3-(azenometheno)tripyrazolo[3,4-f:3′,4′-j:4″,3″-n][1,4]oxazacyclopentadecin-14-yl]ethan-1-ol] | 2.14 | 15.8 | 0.83 | 1.69 | 0.29 | 2.32 | 5.72 | 0.17 | 0.9 | 0.26 | 0.2 | 0.16 | 0.14 | 0.63 | 0.5 | 
3 | CCOc1nn(CCO)c2c1/C=C/c1n[nH]c3cnc(cc13)-c1cnn(C)c1O[C@H](C)CN(CC)C2 [Ex. 6, 2-[(10R,17E)-16-ethoxy-12-ethyl-8,10-dimethyl-2,8,10,11,12,13-hexahydro-14H-5,3-(azenometheno)tripyrazolo[3,4-f:3′,4′-j:4″,3″-n][1,4]oxazacyclopentadecin-14-yl]ethan-1-ol] | 0.12 | 42.7 | 0.49 | 6.85 | 0.16 | 10.9 | 28 | 0.09 |  | 1.98 | 0.07 | 0.13 |  | 27.6 | 0.15 | 
4 | CCN1Cc2c(c(OC(C)C)nn2CCO)/C=C/c2n[nH]c3cnc(cc23)-c2cnn(C)c2O[C@@H](C)C1 [Ex. 9, 2-[(10S,17E)-12-ethyl-8,10-dimethyl-16-[(propan-2-yl)oxy]-2,8,10,11,12,13-hexahydro-14H-5,3-(azenometheno)tripyrazolo[3,4-f:3′,4′-j:4″,3″-n][1,4]oxazacyclopentadecin-14-yl]ethan-1-ol] | 0.49 | 19.8 | 0.33 | 3.48 | 0.45 | 4.19 | 3.22 | 0.67 | 0.93 | 0.39 | 0.29 | 0.18 | 0.19 | 12.1 | 0.45 | 
5 | CCOc1nn(CCO)c2c1/C=C/c1n[nH]c3cnc(cc13)-c1cnn(C)c1OC[C@H](C)N(CC)C2 [Ex. 7, 2-[(11S,17E)-16-ethoxy-12-ethyl-8,11-dimethyl-2,8,10,11,12,13-hexahydro-14H-5,3-(azenometheno)tripyrazolo[3,4-f:3′,4′-j:4″,3″-n][1,4]oxazacyclopentadecin-14-yl]ethan-1-ol] | 0.23 | 70.9 | 0.74 | 24.3 | 0.89 | 14.2 | 47.4 | 0.29 |  | 5.17 | 1.09 | 1.16 |  | 59.7 | 0.28 | 
6 | CC(C)Oc1nn(CCO)c2c1/C=C/c1n[nH]c3cnc(cc13)-c1cnn(C)c1O[C@@H](C)CN(C)C2 [Ex. 5, 2-[(10S,17E)-8,10,12-trimethyl-16-[(propan-2-yl)oxy]-2,8,10,11,12,13-hexahydro-14H-5,3-(azenometheno)tripyrazolo[3,4-f:3′,4′-j:4″,3″-n][1,4]oxazacyclopentadecin-14-yl]ethan-1-ol] | 0.1 | 29.2 | 0.45 | 6.4 | 0.13 | 3.99 | 4.88 | 0.08 |  | 0.99 | 0.08 | 0.08 |  | 33.5 | 0.11 | 
7 | CCOc1nn(CCO)c2c1/C=C/c1n[nH]c3cnc(cc13)-c1cnn(C)c1O[C@H](C)CN(C(C)C)C2 [Ex. 12, 2-[(10R,17E)-16-ethoxy-8,10-dimethyl-12-(propan-2-yl)-2,8,10,11,12,13-hexahydro-14H-5,3-(azenometheno)tripyrazolo[3,4-f:3′,4′-j:4″,3″-n][1,4]oxazacyclopentadecin-14-yl]ethan-1-ol] | 0.44 | 40.7 | 0.31 | 6.38 | 0.62 | 3.64 | 22.2 | 0.58 | 1.36 | 2.25 | 0.42 | 0.39 | 0.78 | 13.8 | 0.43 | 
8 | CCOc1nn([C@@H](C)CO)c2c1/C=C/c1n[nH]c3cnc(cc13)-c1c(C)nn(C)c1O[C@H](C)CN(C)C2 [Ex. 35, (2S)-2-[(10R,17E)-16-ethoxy-6,8,10,12-tetramethyl-2,8,10,11,12,13-hexahydro-14H-5,3-(azenometheno)tripyrazolo[3,4-f:3′,4′-j:4″,3″-n][1,4]oxazacyclopentadecin-14-yl]propan-1-ol] | 0.41 | 15.1 | 0.66 | 1.56 |  | 1.25 | 3.05 | 0.22 | 0.89 | 0.51 | 0.24 |  | 0.14 | 2.56 |  | 0.46
